Assay results reported in US20080241265A1, “Pharmaceutical Combinations Containing Lamivudine, Stavudine and Nevirapine” (priority 2005, published 2008).
Entries after “also recorded” stand apart in the source; their conditions may differ.

Assay: Compatibility study of homogeneous mixtures of the active ingredients (appearance and impurities after storage)
Assay type: physicochemical
Details: conclusion from the four-week mixture study
Source text: Study was designed so as to evaluate the physico-chemical parameters of these three drugs.

SMILES | Compatibility with the other active ingredient
Nc1ccn([C@@H]2CS[C@H](CO)O2)c(=O)n1 [Lamivudine, (2R-cis)-4-Amino-1-[2-(hydroxymethyl) 1,3-oxathiolan-5-yl]-2(1H)-pyrimidinone] | compatible with Nevirapine; also recorded: not with Stavudine
Cc1cn([C@H]2C=C[C@@H](CO)O2)c(=O)[nH]c1=O [stavudine, (3′-deoxythymidin-2′-ene(3′-deoxy-2′,3′-didehydrothymidine)] | incompatible with nevirapine
